According to patent US20240393340A1, “PROGNOSIS AND PREDICTIVE BIOMARKERS AND BIOLOGICAL APPLICATIONS THEREOF” (INSTITUT GUSTAVE ROUSSY, priority 2013, published 2024):

Columns and labels:
Assay type in all cases: cell-based
eIF4F complex = assay: Cap binding assay (m7GTP-Sepharose beads)
Method: FIG. 3: Examination of eIF4F complex formation by the “cap binding assay” in the indicated cell lines. Eluates from the beads (m7G-bound) and total extracts (input) were analyzed on 4% to 12% gradient gel electrophoresis, followed by Western blotting with the indicated antibodies.
Cells were grown for 48 h in 10% Fetal Bovine Serum (FBS) followed by 24 h without FBS. Cells were subsequently grown for 12 h in the absence or the presence of trastuzumab. Cells were harvested and lysed in ice-cold lysis buffer (KCl 150 mM, Hepes pH 7.5 50 mM, DTT 2 mM, Tween 20 0.2%, and Complete Protease Inhibitor Cocktail from Roche). Cell lysates were incubated with 7-methyl-GTP-sepharose 4B beads (Amersham Biosciences) for 2 h at 4° C. Eluates from the beads (7 mG-bound) and total extracts (Tot.) were analyzed on 4-12% gradient gel electrophoresis followed by western blot. Experiments were repeated at least 4 times.
In a so-called “cap binding assay”, synthetic m7GTP-Sepharose beads were used to capture eIF4E and its binding partners, eIF4G (called Cap-ON complex) and 4EBP1 (called Cap-OFF complex). The inventors observed that following PLX-4720 treatment, the amount of eIF4E-bound 4EBP1 (Cap-OFF complex) was increased, whereas the quantity of eIF4E-bound eIF4G (Cap-ON complex), i.e. the formation of the active eIF4F complex, was decreased in the two PLX-4720-sensitive cell lines (A375, Mel888) (FIG. 3). In contrast, and consistent with the inventors' hypothesis, the formation of the eIF4F complex was unchanged in the two cell lines (Mel624, A2058) with less sensitivity to PLX-4720.

[1] = test system: eIF4E-eIF4G and eIF4E-4EBP1 interactions; assay: Proximity ligation assay in cell lines
From the text: FIGS. 4A-4B: The interactions between eIF4E and eIG4G (“Cap-ON”) and between […] (“Cap-OFF” interaction) are (FIG. 4A) visualized by the PLA technique and (FIG. 4B) quantified (number of points per 100 nucleus) using ImageJ for the indicated cell lines and treatments.
FIGS. 5A-5C: The interactions between eIF4E and eIF4G (“Cap-ON”) and between […] (“Cap-OFF” interaction) are (FIG. 5A) visualized by the PLA technique and (FIG. 5B) quantified (number of points per 100 nucleus) using ImageJ for the indicated cell lines and treatments. (FIG. 5C) Cells were treated with increasing concentrations of PLX-4720 for 72 h, and cell viability was determined using CellTiter-Blue by measuring the absorbance at 540 nm in a microplate reader. Error bars show datatstandard error. Means were derived from four replicates (n=4).
FIGS. 9A-9B: The formation of the eIF4F translation initiation complex is associated with resistance to anti-BRAF inhibitors. FIG. 9A: Quantification of the proximity ligation assay showing the number of red spots (corresponding to the interactions between eIF4E-elF4G or eIF4E-4EBP1) per 100 nuclei (quantified with the Volocity software). Data are means±s.d. (n=3). Significance determined by Mann-Whitney U test (*P<0.05, **P<0.01). FIG. 9B: The eIF4E-eIF4G and eIF4E-4EBP1 interactions detected by in situ proximity ligation assay in vemurafenib (6 μM)-treated (24 h) or untreated HT29 colon cancer cell line and BCPAP thyroid cancer cell line respectively. The interactions were visualised as red fluorescent spots by the scanner Olympus VS120. Cell nuclei were stained with DAPI (blue).
Proximity ligation assays (PLAs) were performed on both fixed and permeabilized transfected cell lines in chamber slides and TMA slides containing melanoma tissue. Following dewaxing and rehydrating of tissue sections, antigen retrieval was performed by heating the slides for 30 min at 95° C. in TE buffer, pH 9. […] The number of in situ PLA signals per cell was counted by semi-automated image analysis. […]

Mel624 = assay: Short-term growth-inhibition assay (Example 1)
Method: (§1) FIGS. 1A-1B: Short-term growth-inhibition assay of a panel of melanoma cell lines including BRAF (V600E) cell lines and an NRAS (Q61R) mutated cell line. FIG. 1A. Cells were treated with increasing concentrations of N-[3-[(5-Chloro-1H-pyrrolo[2,3-b]pyridin-3-yl)carbonyl]-2,4-difluorophenyl]-1-propanesulfonamide (PLX-4720) for 72 h and cell viability was determined using CellTiter-Blue by measuring the absorbance at 540 nm in a microplate reader. Error bars show data +standard error. Means were derived from four replicates (n=4). FIG. 1B. Long-term colony formation assay of the indicated cells. Cells were grown in the absence or presence of PLX-4720 at the indicated concentrations for 15-20 days. For each cell line, all dishes were fixed at the same time, stained and photographed. […]
(§2) The inventors quantified the effect of exposing these cell lines to PLX-4720 on the half-maximum inhibitory concentration (IC50) (Table 1).

A2058 = assay: Short-term growth-inhibition assay (Example 1)
Method: as §1, §2

[2] = sensitive cell lines A375, Mel888
[3] = sensitive cell lines A375, Mel888, treated vs untreated

SMILES: CCCS(=O)(=O)Nc1ccc(F)c(C(=O)c2c[nH]c3ncc(Cl)cc23)c1F [PLX-4720, N-[3-[(5-Chloro-1H-pyrrolo[2,3-b]pyridin-3-yl)carbonyl]-2,4-difluorophenyl]-1-propanesulfonamide]
- formation / disruption of the eIF4F (eIF4E-eIF4G) complex (eIF4F complex; less sensitive cell lines Mel624, A2058): unchanged
- amount of eIF4E-bound 4EBP1 (Cap-OFF complex) (eIF4F complex; [2]): increased
- quantity of eIF4E-bound eIF4G (Cap-ON complex) (eIF4F complex; [2]): decreased
- Cap-ON and Cap-OFF interaction ([1]; less sensitive / resistant cell lines Mel624, A2058): didn't affect
- eIF4E-4EBP1 (Cap-OFF) interaction [1, 3]: increase
- eIF4E-eIF4G (Cap-ON) interaction [1, 3]: reduced signal counts
- sensitivity of the cell line compared to the other BRAF (V600E)-mutated melanoma cell lines (Mel624; Mel624, short-term and long-term proliferation assays, Example 1): less sensitive
- IC50 (Mel624; Mel624 cell line, read-out: half-maximum inhibitory concentration (IC50)): 4.4 µM
- sensitivity of the cell line compared to the other BRAF (V600E)-mutated melanoma cell lines (A2058; A2058, short-term and long-term proliferation assays, Example 1): less sensitive
- IC50 (A2058; Homo sapiens, A2058 cell line, read-out: half-maximum inhibitory concentration (IC50)): 2.4 µM
